Data reported in patent US20210238170A1, “5,5-Difluoro- and 5-Fluoro-5-Methyl-C-Glycoside Derivatives Useful As Dual SGLT1 / SGLT2 Modulators” (Janssen Pharmaceutica NV, priority 2018, published 2021).

How the values were obtained:
human SGLT1 = molecular target: T1, human SGLT1 (Homo sapiens, UniProt P13866); assay: SGLT1 in vitro assay: Na-dependent 14C-AMG uptake in CHO-K1 cells stably expressing human SGLT1; type: cell-based; details: CHO-K1 cells stably expressing human SGLT1, 14C-AMG uptake; for inhibition at 0.3 µM: read-out: SGLT1 % Inh @ 0.3 μM; for IC50: compounds of formula (I) where R0 is fluoro
T1 construct: expressed in transfected cells
T1 sequence (P13866 1-664): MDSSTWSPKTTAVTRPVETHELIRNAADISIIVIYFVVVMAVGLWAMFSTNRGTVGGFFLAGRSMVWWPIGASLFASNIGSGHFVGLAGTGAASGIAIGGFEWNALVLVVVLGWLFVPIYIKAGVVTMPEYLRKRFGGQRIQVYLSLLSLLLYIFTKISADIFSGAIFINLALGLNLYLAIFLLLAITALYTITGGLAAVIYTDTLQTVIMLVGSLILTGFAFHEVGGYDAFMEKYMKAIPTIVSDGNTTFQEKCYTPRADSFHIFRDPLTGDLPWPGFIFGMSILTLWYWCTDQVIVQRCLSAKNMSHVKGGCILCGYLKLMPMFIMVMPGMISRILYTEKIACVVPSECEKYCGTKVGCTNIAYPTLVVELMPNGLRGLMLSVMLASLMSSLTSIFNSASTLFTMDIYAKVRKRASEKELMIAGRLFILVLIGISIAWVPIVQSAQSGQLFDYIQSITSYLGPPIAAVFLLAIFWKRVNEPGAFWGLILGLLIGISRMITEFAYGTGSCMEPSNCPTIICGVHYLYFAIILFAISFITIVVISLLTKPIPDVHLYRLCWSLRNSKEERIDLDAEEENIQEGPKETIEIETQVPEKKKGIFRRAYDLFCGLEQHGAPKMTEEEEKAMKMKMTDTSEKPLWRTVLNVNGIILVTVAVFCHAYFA
Protocol: (§1) Biological Example 1: SGLT1 and SGLT2 In Vitro Assays
(§2) The ability of the compounds of formula (I) of the present invention to treat an SGLT-mediated condition was determined using the following procedures:
(§3) SGLT1 and SGLT2 were cloned in form of cDNA from human small intestine (Genbank M24847), and from human kidney (Genbank M95549), respectively. Subsequently, each full cDNA was subcloned into pcDNA with each construct's integrity verified through follow-on sequencing. To generate CHO-K1 cells that stably express human SGLT1 or human SGLT2, CHO-K1 cells were transfected using DMRIE-C reagent (Life Technologies, Gaithersburg, Md.). Transfected cells were then selected in the presence of 500 μg/ml of the Geneticin (G418 Cellgro Catalog No. 30234-CI)
(§4) Individual clones were then characterized using the following cell-based assay for sodium-dependent glucose transport:
(§5) Inhibition of SGLT1 and SGLT2 activity was assessed in CHO K1 cells stably expressing either human SGLT1 or SGLT2, using the SGLT specific glucose analog methyl-glucopyranoside (Sigma Catalog No. M-9376). Cells were plated (45,000 cells/well) in white wall 96-well plates (COSTAR, Cat #3903) for 24 hours in growth medium, then a final concentration of 10 mM Na-Butyrate (ALDRICH Cat #30341-0) was added. The cells were incubated for 24 hours. On the day of the assay, cells were rinsed and treated with test compounds (at concentrations of 0.001 μM to 10 μM) in assay buffer (50 mM HEPES, 20 mM Tris base, 5 mM KCl, 1 mM MgCl2, 1 mM CaCl2 and 137 mM NaCl, pH 7.4) for 10 minutes. Cells were then incubated with ^14C-a-methyl-d-glucopyranoside (AMG, Amersham Catalog No. CFB 76), using 0.07 μCi per well in 500 µM AMG final concentration. The cells were incubated for 2 hours at 37° C. with 5% CO2 and washed two times with ice-cold Phosphate Buffer Solution (CELLGRO Catalog No. 21030-CV). The cells were then solubilized by adding 60 μl of MICROSCINT™ 20 and the Na-dependent ^14C-AMG uptake was quantified by measuring radioactivity. Plates were counted in a TopCount (Packard, Meriden, Conn.)
(§6) Representative compounds of the present invention were tested according to the procedures as described in Biological Example 1 and 2 above, with results as listed in Table 5, below. Results are reported as the %-inhibition or IC50 value. Variability for the functional assay was typically within 20%.

human SGLT2 = molecular target: T2, human SGLT2 (Homo sapiens, UniProt P31639); assay: SGLT2 in vitro assay: Na-dependent 14C-AMG uptake in CHO-K1 cells stably expressing human SGLT2; type: cell-based; details: CHO-K1 cells stably expressing human SGLT2, 14C-AMG uptake; for inhibition at 0.3 µM: read-out: SGLT2 % Inh @ 0.3 μM; for IC50: compounds of formula (I) where R0 is fluoro
T2 construct: expressed in transfected cells
T2 sequence (P31639 1-672): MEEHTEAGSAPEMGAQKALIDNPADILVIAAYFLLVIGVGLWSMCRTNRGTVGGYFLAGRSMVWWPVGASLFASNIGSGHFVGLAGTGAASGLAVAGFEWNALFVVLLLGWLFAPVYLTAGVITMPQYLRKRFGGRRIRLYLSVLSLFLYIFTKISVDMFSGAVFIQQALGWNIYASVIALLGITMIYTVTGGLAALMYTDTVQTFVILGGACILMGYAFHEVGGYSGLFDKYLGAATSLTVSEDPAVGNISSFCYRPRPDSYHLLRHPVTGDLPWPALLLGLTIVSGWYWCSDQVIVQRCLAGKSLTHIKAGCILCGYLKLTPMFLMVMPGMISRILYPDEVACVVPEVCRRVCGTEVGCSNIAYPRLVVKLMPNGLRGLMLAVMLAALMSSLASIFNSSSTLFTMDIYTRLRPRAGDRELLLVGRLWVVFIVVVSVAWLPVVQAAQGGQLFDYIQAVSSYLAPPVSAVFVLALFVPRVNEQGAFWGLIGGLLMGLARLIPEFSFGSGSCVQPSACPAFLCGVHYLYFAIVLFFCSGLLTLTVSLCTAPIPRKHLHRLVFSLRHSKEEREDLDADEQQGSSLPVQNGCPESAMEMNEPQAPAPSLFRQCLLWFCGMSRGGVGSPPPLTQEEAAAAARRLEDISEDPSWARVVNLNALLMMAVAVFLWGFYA
Protocol: as §1, §2, §3, §4, §5, §6

| Compound | inhibition at 0.3 µM (human SGLT1) | IC50 (human SGLT1) | inhibition at 0.3 µM (human SGLT2) | IC50 (human SGLT2) | SGLT1 % Inh @ 0.3 μM (human SGLT1) | SGLT2 % Inh @ 0.3 μM (human SGLT2) |
| --- | --- | --- | --- | --- | --- | --- |
| Cc1cc(O)c([C@@H]2O[C@H](CO)C(F)(F)[C@H](O)[C@H]2O)cc1Cc1ccc(-c2ccc(F)cc2)s1 [Compound 68] | – | – | – | – | 26.6% | 69.5% |
| Cc1cc(O)c([C@@H]2O[C@H](CO)C(F)(F)[C@H](O)[C@H]2O)cc1Cc1cc2c(s1)CCN(C#N)C2 [Compound 82] | – | 505 nM | – | 5.5 nM | 50.3% | 85.4% |
| COc1cc(Cl)c(Cc2cc3c(s2)CCN(C(C)=O)C3)cc1[C@@H]1O[C@H](CO)C(F)(F)[C@H](O)[C@H]1O [Compound 73] | – | – | – | – | 21.4% | 55.0% |
| Cc1cnc(C(=O)N2CCc3sc(Cc4cc([C@@H]5O[C@H](CO)C(F)(F)[C@H](O)[C@H]5O)c(O)cc4C)cc3C2)s1 [Compound 83] | 43.3% | 449 nM | 85.4% | 9.7 nM | – | – |
| COc1cc(Cl)c(Cc2cc3ccccc3s2)cc1[C@@H]1O[C@H](CO)C(F)(F)[C@H](O)[C@H]1O [Compound 36, (2S,3R,4R,6R)-2-[5-(benzothiophen-2-ylmethyl)-4-chloro-2-methoxy-phenyl]-5,5-difluoro-6-(hydroxymethyl)tetrahydropyran-3,4-diol] | 56.6% | 221 nM | 48.6% | 4.3 nM | – | – |
| CC(=O)N1CCc2sc(Cc3cc([C@@H]4O[C@H](CO)C(F)(F)[C@H](O)[C@H]4O)c(O)cc3Cl)cc2C1 [Compound 72] | – | – | – | – | 38.5% | 73.0% |
| Cc1cc(O)c([C@@H]2O[C@H](CO)C(F)(F)[C@H](O)[C@H]2O)cc1Cc1cc2c(s1)CCN(C(=O)C1CCCC1)C2 [Compound 69] | – | – | – | – | 64.0% | 67.1% |
| CCOc1cc(C)c(Cc2cc3ccccc3s2)cc1[C@@H]1O[C@H](CO)C(F)(F)[C@H](O)[C@H]1O [Compound 41] | – | – | – | – | 5.8% | 85.4% |
| COc1c(Cc2ccc3c(c2)CCCO3)cc([C@@H]2O[C@H](CO)C(F)(F)[C@H](O)[C@H]2O)c2c1CCO2 [Compound 93] | – | – | – | – | 34.5% | 80.4% |
| Cc1cc(OC(C)C)c([C@@H]2O[C@H](CO)C(F)(F)[C@H](O)[C@H]2O)cc1Cc1cc2ccccc2s1 [Compound 42] | – | – | – | – | 8.9% | 74.3% |
| Cc1ccc([C@@H]2O[C@H](CO)C(F)(F)[C@H](O)[C@H]2O)cc1Cc1cc2c(s1)CCN(C(=O)c1nccs1)C2 [Compound 79] | – | – | – | – | 20.3% | 63.6% |

Other lines, results leading:

| inhibition at 0.3 µM (human SGLT1) | IC50 (human SGLT1) | inhibition at 0.3 µM (human SGLT2) | IC50 (human SGLT2) | SGLT1 % Inh @ 0.3 μM (human SGLT1) | SGLT2 % Inh @ 0.3 μM (human SGLT2) | Compound |
| --- | --- | --- | --- | --- | --- | --- |
| 84% | 57 nM | 85.2% | 0.9 nM | – | – | OC[C@H]1O[C@@H](c2cc(Cc3ccc4c(c3)OCC4)c(Cl)cc2O)[C@H](O)[C@@H](O)C1(F)F [Compound 111, (2S,3R,4R,6R)-2-(4-chloro-5-((2,3-dihydrobenzofuran-6-yl)methyl)-2-hydroxyphenyl)-5,5-difluoro-6-(hydroxymethyl)-tetrahydro-2H-pyran-3,4-diol] |
| – | – | – | – | 24.9% | 62.1% | CN(C)c1ccc(Cc2cc([C@@H]3O[C@H](CO)C(F)(F)[C@H](O)[C@H]3O)cc3c2OCC3)cc1 [Compound 179] |
| 43.2% | 175 nM | 77.6% | 0.9 nM | – | – | COc1cc(Cl)c(Cc2ccc(Cl)cc2)cc1[C@@H]1O[C@H](CO)C(F)(F)[C@H](O)[C@H]1O [Compound 168] |
| – | – | – | – | 32.9% | 90.2% | OC[C@H]1O[C@@H](c2cc(Cc3ccc(OCF)cc3)c(Cl)cc2O)[C@H](O)[C@@H](O)C1(F)F [Compound 125] |
| 81.1% | 72 nM | 85.5% | 1.9 nM | – | – | COc1cc(O)c([C@@H]2O[C@H](CO)C(F)(F)[C@H](O)[C@H]2O)cc1Cc1ccc(C2CC2)cc1 [Compound 140] |
| – | – | – | – | 31.6% | 62.3% | COc1cc(O)c([C@@H]2O[C@H](CO)C(F)(F)[C@H](O)[C@H]2O)cc1Cc1cc2c(s1)CCN(C#N)C2 [Compound 134] |
| – | – | – | – | 17.3% | 83.3% | N#Cc1cc(O)c([C@@H]2O[C@H](CO)C(F)(F)[C@H](O)[C@H]2O)cc1Cc1ccc(C2CC2)cc1 [Compound 173] |
| – | – | – | – | 25.4% | 65.3% | COc1c([C@@H]2O[C@H](CO)C(F)(F)[C@H](O)[C@H]2O)cc(Cc2ccc(N(C)C)cc2)c2c1CCO2 [Compound 185] |
| – | – | – | – | 72.3% | 62.9% | OC[C@H]1O[C@@H](c2cc(Cc3ccc(OCF)cc3)c(C3CC3)cc2O)[C@H](O)[C@@H](O)C1(F)F [Compound 143] |
| – | – | – | – | 22.9% | 83.7% | CCc1ccc(Cc2cc([C@@H]3O[C@H](CO)C(F)(F)[C@H](O)[C@H]3O)c(OC)cc2CC)cc1 [Compound 130] |
| 71.8% | 112 nM | 89.7% | 2.6 nM | – | – | COc1cccc(Cc2cc([C@@H]3O[C@H](CO)C(F)(F)[C@H](O)[C@H]3O)c(O)cc2Cl)c1 [Compound 157] |
| 52% | 105 nM | 90.6% | 1.7 nM | – | – | COc1cc(Cl)c(Cc2ccc(C)cc2)cc1[C@@H]1O[C@H](CO)C(F)(F)[C@H](O)[C@H]1O [Compound 176] |
| – | – | – | – | 40.4% | 79.9% | COc1cc(Cl)c(Cc2ccc(Cl)s2)cc1[C@@H]1O[C@H](CO)C(F)(F)[C@H](O)[C@H]1O [Compound 172] |
| – | – | – | – | 8.5% | 74.9% | CCc1ccc(Cc2cc([C@@H]3O[C@H](CO)C(F)(F)[C@H](O)[C@H]3O)c(OC)cc2C#N)cc1 [Compound 166] |
